This is an account of results in patent US9090658B2, “Base-substituted benzylamine analogs for use as coagulation factor Xa inhibitors, the production and use thereof” (The Medicines Company (Leipzig) GmbH, priority 2003, dated 2015).

The target in one assay is F Xa. The conditions noted are these: prior art, literature values; cited from earlier work.
In a further assay the target is T1, factor Xa (Bos taurus, UniProt P00743).
T1 construct: purchased Diagnostic Reagents Ltd, Thame, GB
The experiment in a line: Determination of the inhibitory constants for factor Xa (chromogenic substrate Moc-D-Nle-Gly-Arg-pNA, Dixon method). The format is biochemical, bovine. The conditions noted are these: for Ki: bovine factor Xa, 25° C., pH 8.0, average of at least three determinations. Here is the method: Determination of the inhibitory Effect
To determine the inhibitory effect, 200 μl of this buffer (0.05 M 0.154 M NaCl, 5% Ethanol, pH 8.0; contains the inhibitor), 25 μl of substrate (Moc-D-Nle-Gly-Arg-pNA in H2O; Pentapharm Ltd., Basle, Switzerland) and 50 μl of factor Xa (bovine, Diagnostic Reagents Ltd, thame, GB) were incubated at 25° C. After 3 min, the reaction was stopped By adding 25 μl of acetic acid (50%), and the absorption at 405 nm was determined using a Microplate Reader (MR 5000, Dynatech, Denkendorf, Germany). The Ki values were Founder by the Dixon method (boichem. J. 55, 170-171, 1953) by linear regression using a Computer program. The Ki values are the average of at least three determinations. The Thrombin inhibitions was determined in analogy to a method described earlier (Stürzebecher et al., J. Med. Chem. 40, 3091-3099, 1997).

For another assay, the target named is Thrombin (UniProt P00735). The assay can be described thus: Determination of the inhibitory constants for thrombin (method of Stürzebecher et al. 1997). The format is biochemical. An excerpt: The Ki values are the average of at least three determinations.

T1 sequence (P00743 234-492 limits assumed): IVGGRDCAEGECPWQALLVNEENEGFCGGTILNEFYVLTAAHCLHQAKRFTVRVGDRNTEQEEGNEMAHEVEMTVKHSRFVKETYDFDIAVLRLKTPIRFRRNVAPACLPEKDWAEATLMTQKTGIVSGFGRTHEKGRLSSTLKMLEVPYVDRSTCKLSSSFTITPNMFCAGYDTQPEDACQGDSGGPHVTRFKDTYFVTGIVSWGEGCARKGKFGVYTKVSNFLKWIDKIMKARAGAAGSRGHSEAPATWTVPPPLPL
T1 sequence (P00743 41-180 partner limits assumed): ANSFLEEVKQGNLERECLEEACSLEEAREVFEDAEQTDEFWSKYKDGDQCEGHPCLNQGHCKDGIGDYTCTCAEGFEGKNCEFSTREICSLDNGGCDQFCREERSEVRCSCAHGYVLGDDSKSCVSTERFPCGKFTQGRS

For orientation: Ki means a measure of affinity in units of concentration, obtained from inhibition or displacement. Consider `N=C(N)c1ccc(C=C2CCCCC(=Cc3ccc(C(=N)N)cc3)C2=O)cc1` [BABCH], for which the Ki on F Xa was 13 nM.

As for `N=C(N)c1ccc(CNC(=O)[C@H](CCCc2ccccc2)NC(=O)C(CCc2ccncc2)NS(=O)(=O)Cc2ccccc2)cc1` (stereo partly shown) [Compound 38], on factor Xa, the “selectivity ratio SR (SR = Ki thrombin/Ki factor Xa)” value (“selectivity ratio SR” below) was 30. Further, the figures for the Ki at factor Xa and on Thrombin were 6 nM and 180 nM, respectively.

As to `N=C(N)c1ccc(CNC(=O)[C@H](CCC(=O)O)NC(=O)[C@@H](CCc2ccncc2)NS(=O)(=O)Cc2ccc(N)cc2)cc1` [Compound 52], on factor Xa, the “selectivity ratio SR” value is given as 5250 and the Ki is 16 nM. The Ki at Thrombin was found to be 84000 nM.

In the case of `N=C(N)c1ccc(CNC(=O)CNC(=O)[C@@H](Cc2ccccc2)NS(=O)(=O)Cc2ccccc2)cc1` [Compound 10], at factor Xa, the “selectivity ratio SR” value was found to be 2.6 and the Ki turned out to be 26 nM. The Ki at Thrombin turned out to be 68 nM.
